From patent US20070105937A1, “Indole-3-propionamide and derivatives thereof” (priority 2003, published 2007)

Tests used:
[1] = biological target: T1, Aβ1-40 (Homo sapiens, UniProt P05067); assay: Thioflavin T fluorescence, inhibition of Aβ aggregation; assay type: biochemical; conditions: Aβ 250 μM, compound:Aβ molar ratio 1:1; FIG. 1
T1 construct: thioflavin T fluorescence experiments performed with Aβ1-40
Description: FIG. 1 illustrates the results of thioflavin T fluorescence experiments performed with Aβ1-40 showing the effects of IPAM as compared with melatonin and IPA.
The ThT was performed as previously described. Briefly, 5 μl were obtained from each sample after incubation and added to 2 ml of a glycine-NaOH buffer (50 mM), pH 9.2, containing 2 μM thioflavin T. Fluorescence intensities were measured at excitation 435 nm and emission 485 nm in a Hitachi F-2000 fluorescence spectrophotometer. A time scan of fluorescence intensity was performed and three measurements were obtained after the decay reached a plateau at 200, 220, and 240 seconds. These measurements were averaged after subtracting the background fluorescence of 2.0 μM thioflavin T in the blank buffers. […] All measurements were done in triplicate. Aqueous stock solutions of 1 mM of each compound were made by first preparing a 10 mM suspension in 1 N HCl and then by completely dissolving them in 100 mM phosphate buffered saline at pH 7.4 (1:10, v:v) and re-adjusting the pH to 7.4 with 1 N NaOH. Solutions of Aβ were prepared by dissolving 2.2 mg of the peptide in 1 ml of 50 mM bicarbonate buffer at pH 9.6. 50 μl aliquots of this solution were lyophilized and stored at −80° C. until needed. Working stock solutions of the peptide (500 μM concentration) were prepared in HPLC-grade water immediately prior to the experiments. In the experimental samples, Aβ was further diluted 1:1 with phosphate buffered saline (pH 7.4, 100 mM) to which each of the compounds or equivalent volumes of buffer solution were added. The final concentration of Aβ in each sample was 250 μM and the compound:Aβ molar ratios were 1:1.

[2] = Time dependent indole levels in brain tissue after i.p. administration; assay type: in vivo, Sprague-Dawley rats; conditions: mean+SD, N=4
Description: Time dependent changes in indole levels in brain tissue (pg/mg protein) after administration of 0.5 mg/kg i.p. of drug in phosphate buffered saline to one month old male Sprague-Dawley rats (N=4 animals, mean+SD). Endogenous levels of melatonin in saline treated control animals were 25+10 pg/mg protein, endogenous levels of indolepropionate were 80+20 pg/mg protein. Significant amounts of endogenous IPAM in rat brain could not be detected. Brain tissue was homogenized 1:10 in phosphate buffer and extracted 1:1 with ethylacetate. Recovery for melatonin, indolepropionate and IPAM were 57+6, 69+12 and 80+4%. Indoles were measured by HPLC with electrochemical detection (20% methanol eluent, 990 mV oxidation potential, IPAM elutes at 18 minutes, melatonin at 21 minutes, indolepropionate at 36 minutes).

[3] = system: rotifers (Philodina); assay: Inhibition of the aging process in a rotifer model (life span); assay type: in vivo
Source text: Free-radicals are involved in the aging process and since IPAM is a powerful cytoprotective agent, we tested IPAM for its property to inhibit the aging process. […] (*=p<0.05, statistically significant difference to control).

[4] = system: Hydroxyl Radical Mediated Oxidative Damage to DNA; assay: Inhibition of hydroxyl radical mediated oxidative damage to DNA in rat forebrain homogenate (8-hydroxydeoxyguanosine formation); assay type: biochemical; conditions: 60 min with 3 mM hydrogen peroxide, 4 mM ferrous sulfate, 2 mM ADP; mean+SD, N=6; read-out: IC 50 (concentration to reduce oxidative DNA damage by 50%)
Description: Rat forebrain homogenate was incubated for sixty minutes with 3 mM hydrogen peroxide, 4 mM ferrous sulfate and 2 mM ADP to generate hydroxyl radicals. The concentrations of each indole compound to reduce oxidative DNA damage by 50%, the IC 50 values, are given as means+standard deviations for N=6 different determinations. The IC 50 values were calculated by running six experiments each at 10 increasing concentrations ranging from 0.01 to 100 micromolar of melatonin, indole-3-propionic acid and indole-3-propionamide. DNA damage was examined by measuring the formation of 8-hydroxydeoxyguanosine with HPLC and electrochemical detection in the presence and absence of the hydroxyl radical scavengers.

[5] = in vivo; cited from earlier work
[6] = system: rotifers (Philodina); assay: Synergistic effects on longevity of rotifers with ascorbate and trolox; assay type: in vivo; set-up: Maximum Life Span: unit not given here
Description: Ascorbate and trolox were administered at a concentration of 100 micromolar, the indoles were given at a concentration of 5 micromolar.

[7] = 30 minutes after 0.5 mg/kg i.p. in phosphate buffered saline
[8] = 60 minutes after 0.5 mg/kg i.p. in phosphate buffered saline
[9] = 120 minutes after 0.5 mg/kg i.p. in phosphate buffered saline
[10] = series against Control (0.1% DMSO), ascorbate, trolox 100 micromolar

T1 sequence (P05067 672-711): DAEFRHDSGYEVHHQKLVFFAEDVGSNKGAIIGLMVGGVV

SMILES | inhibition of Aβ aggregation [1] | indole levels in brain tissue [2, 7] | indole levels in brain tissue [2, 8] | indole levels in brain tissue [2, 9] | Increase in % of control (maximum life span) ([3]; 0.5 μM) | Increase in % of control (median life span) ([3]; 0.5 μM) | Maximum life span in days (90% survival) ([3]; 0.5 μM, control 27) [days] | Increase in % of control (maximum life span) ([3]; 5 μM) | Increase in % of control (median life span) ([3]; 5 μM) | Maximum life span in days (90% survival) ([3]; 5 μM, control 30) [days] | Increase in % of control (maximum life span) ([3]; 50 μM) | Increase in % of control (median life span) ([3]; 50 μM) | Maximum life span in days (90% survival) ([3]; 50 μM, control 30) [days] | IC50 [4] [nM] | half-life [5] [h] | Increase in % of control (Medium Life Span) ([6]; control = 0.1% DMSO) | Maximum Life Span [6, 10] | other results
NC(=O)CCc1c[nH]c2ccccc12 [IPAM, indole-3-propionamide] | potent inhibitor of Aβ aggregation | 480 + 46 pg/mg protein | 520 + 50 pg/mg protein | 570 + 69 pg/mg protein | +55% | +31% | 42 | +50% | +40% | 45 | +13% | +15% | 34 | 180 |  |  |  | toxicity in rotifers ([3]; in vivo): devoid of toxicity
O=C(O)CCc1c[nH]c2ccccc12 [IPA, indole-3-propionic acid] | potent inhibitor of Aβ aggregation | 160 + 11 pg/mg protein | 210 + 18 pg/mg protein | 230 + 25 pg/mg protein | +37% | +28% | 39 | +37% | +30% | 41 |  | −3% | 30 | 7460 | 4.5 |  |  | 
O=C1O[C@H]([C@@H](O)CO)C(O)=C1O [Ascorbate] |  |  |  |  |  |  |  |  |  |  |  |  |  |  |  | −1% | 28 | Increase in % of control (maximum life span) ([6]; control = 0.1% DMSO): −7%; Maximum Life Span ([6]; series against Ascorbate in 0.1% DMSO, ascorbate 100 micromolar, indoles 5 micromolar): 30
COc1ccc2[nH]cc(CCNC(C)=O)c2c1 [Melatonin] | potent inhibitor of Aβ aggregation | 450 + 30 pg/mg protein | 200 + 15 pg/mg protein | 73 + 6 pg/mg protein | +30% | +19% | 35 | +40% | +29% | 42 | +3% | +12% | 31 | 1400 | 0.333 |  |  | 
Cc1c(C)c2c(c(C)c1O)CCC(C)(C(=O)O)O2 (stereo not drawn) [Trolox] |  |  |  |  |  |  |  |  |  |  |  |  |  |  |  | +8% | 30 | Maximum Life Span ([6]; series against Trolox in 0.1% DMSO, trolox 100 micromolar, indoles 5 micromolar): 34
